Results on 29 molecules are retold here after patent US8772480B2, “Inhibitors of PI3 kinase and/or mTOR” (priority 2009, dated 2014).

Assay [1] has as its target PI3Kα (Homo sapiens (Human), UniProt P42336). The conditions noted are these: read-out: PI3Kα AlphaScreen ® Ki.
Assay [2] has as its system phosphorylation of Akt at Serine 473 in U87 MG cells. The experiment in a line: cells. As to conditions: Homo sapiens, U-87 MG, 2 h, read-out: U87Cell IC50, pAkt (Ser 473), U87 MG cells, two hours with compound.

Sequence of PI3Kα (P42336 whole entry): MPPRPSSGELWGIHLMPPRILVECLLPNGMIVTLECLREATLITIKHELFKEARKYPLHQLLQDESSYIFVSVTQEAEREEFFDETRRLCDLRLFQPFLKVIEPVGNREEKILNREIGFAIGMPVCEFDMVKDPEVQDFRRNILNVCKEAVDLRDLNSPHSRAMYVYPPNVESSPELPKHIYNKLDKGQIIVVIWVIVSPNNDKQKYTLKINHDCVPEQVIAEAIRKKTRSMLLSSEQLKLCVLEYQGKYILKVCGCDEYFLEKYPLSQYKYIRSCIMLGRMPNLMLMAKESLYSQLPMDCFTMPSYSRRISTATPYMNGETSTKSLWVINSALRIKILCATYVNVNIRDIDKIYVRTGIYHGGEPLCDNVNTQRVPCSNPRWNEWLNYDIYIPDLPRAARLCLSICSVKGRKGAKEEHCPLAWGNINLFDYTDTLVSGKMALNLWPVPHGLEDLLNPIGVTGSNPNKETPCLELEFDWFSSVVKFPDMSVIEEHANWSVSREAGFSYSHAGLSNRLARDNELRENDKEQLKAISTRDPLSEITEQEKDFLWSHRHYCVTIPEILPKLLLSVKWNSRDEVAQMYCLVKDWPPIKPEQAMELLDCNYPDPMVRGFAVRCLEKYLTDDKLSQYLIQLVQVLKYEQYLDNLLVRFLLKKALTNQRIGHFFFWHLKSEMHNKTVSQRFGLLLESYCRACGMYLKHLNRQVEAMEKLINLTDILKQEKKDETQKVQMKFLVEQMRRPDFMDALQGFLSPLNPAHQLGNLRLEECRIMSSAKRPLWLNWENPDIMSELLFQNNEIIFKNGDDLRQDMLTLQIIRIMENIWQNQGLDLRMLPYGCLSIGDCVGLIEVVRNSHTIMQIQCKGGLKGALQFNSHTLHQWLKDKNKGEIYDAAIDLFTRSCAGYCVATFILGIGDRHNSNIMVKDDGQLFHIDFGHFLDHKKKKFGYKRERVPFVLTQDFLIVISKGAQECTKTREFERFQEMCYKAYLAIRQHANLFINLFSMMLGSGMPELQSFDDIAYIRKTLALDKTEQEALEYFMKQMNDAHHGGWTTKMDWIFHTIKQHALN
Sequence of PI3Kα (P27986 whole entry partner): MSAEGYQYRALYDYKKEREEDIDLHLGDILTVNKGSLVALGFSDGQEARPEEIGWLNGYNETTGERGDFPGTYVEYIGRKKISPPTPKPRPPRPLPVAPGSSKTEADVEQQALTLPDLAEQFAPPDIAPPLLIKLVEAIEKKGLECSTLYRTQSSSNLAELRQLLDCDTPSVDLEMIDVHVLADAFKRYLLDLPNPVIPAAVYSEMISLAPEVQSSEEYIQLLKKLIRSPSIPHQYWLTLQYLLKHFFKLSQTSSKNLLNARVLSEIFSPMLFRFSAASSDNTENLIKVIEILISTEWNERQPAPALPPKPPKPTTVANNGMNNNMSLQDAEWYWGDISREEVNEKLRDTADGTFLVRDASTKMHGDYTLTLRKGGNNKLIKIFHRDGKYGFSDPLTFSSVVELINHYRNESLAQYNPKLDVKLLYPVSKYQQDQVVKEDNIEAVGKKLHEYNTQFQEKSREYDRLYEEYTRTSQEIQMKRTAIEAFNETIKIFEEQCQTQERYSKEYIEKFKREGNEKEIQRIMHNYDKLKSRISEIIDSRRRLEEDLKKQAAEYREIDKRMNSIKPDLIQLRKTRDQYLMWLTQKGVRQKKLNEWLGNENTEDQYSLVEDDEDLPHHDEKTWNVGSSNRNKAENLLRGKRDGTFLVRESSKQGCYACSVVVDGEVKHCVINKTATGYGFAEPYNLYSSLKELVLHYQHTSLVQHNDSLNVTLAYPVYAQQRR

As a reminder, the Ki is the dissociation constant of the complex between target and ligand, obtained from inhibition or displacement. The term IC50 denotes the concentration at which inhibition is half-maximal. `Cc1nc(N)nc(-c2cc(F)cnc2Nc2cncc(F)c2)n1` [Example 186, 4-(5-Fluoro-2-(5-Fluoropyridin-3-Ylamino)Pyridin-3-yl)-6-Methyl-1,3,5-Triazin-2-Amine]: the Ki in assay [1] came to 851 nM. Also, in assay [2], the IC50 was > 10000 nM.

Consider `COc1ncc(Nc2ncc(C=O)cc2-c2nc(C)nc(N)n2)cc1F` [Example 187, 5-(4-Amino-6-Methyl-1,3,5-Triazin-2-yl)-6-(5-Fluoro-6-Methoxypyridin-3-Ylamino)Nicotinaldehyde], for which the Ki in assay [1] turned out to be 13 nM. In addition, in assay [2], the IC50 was 18 nM.

Regarding `Cc1nc(N)nc(-c2cc(Cl)cnc2NC2CCOCC2)n1` [Example 188, 4-(5-Chloro-2-(Tetrahydro-2H-Pyran-4-Ylamino)Pyridin-3-yl)-6-Methyl-1,3,5-Triazin-2-Amine], the Ki in assay [1] turned out to be 2080 nM. In assay [2], the IC50 was > 10000 nM.

Take `COCCNc1nc(C)nc(-c2cc(Cl)cnc2Nc2cnc(OC)c(F)c2)n1` [Example 189, 4-(5-Chloro-2-(5-Fluoro-6-Methoxypyridin-3-Ylamino)Pyridin-3-yl)-N-(2-Methoxyethyl)-6-Methyl-1,3,5-Triazin-2-Amine]: in assay [1], the Ki was found to be 409 nM. Besides, the IC50 in assay [2] was > 10000 nM.

As for `Cc1nc(N)nc(-c2cccnc2Nc2ccc(NC(=O)NC(C)C)nc2)n1` [Example 192, 1-(5-(3-(4-Amino-6-Methyl-1,3,5-Triazin-2-yl)Pyridin-2-Ylamino)Pyridin-2-yl)-3-Isopropylurea], the Ki in assay [1] stood at 691 nM. Further, in assay [2], the IC50 was 941 nM.

As for `COCCOc1ccc(NC(=O)Nc2ccc(Nc3ncc(Cl)cc3-c3nc(C)nc(N)n3)cn2)cc1` [Example 195, 1-(5-(3-(4-Amino-6-Methyl-1,3,5-Triazin-2-yl)-5-Chloropyridin-2-Ylamino)Pyridin-2-yl)-3-(4-(2-Methoxyethoxy)Phenyl)Urea], in assay [1], the Ki was 16 nM. The IC50 in assay [2] was > 10000 nM.

Turning to `CC(=O)Nc1ccc(Nc2ncc(CN3CCN(S(C)(=O)=O)CC3)cc2-c2nc(C)nc(N)n2)cn1` [Example 196, N-(5-(3-(4-Amino-6-Methyl-1,3,5-Triazin-2-yl)-5-((4-(Methylsulfonyl)Piperazin-1-yl)Methyl)Pyridin-2-Ylamino)Pyridin-2-yl)Acetamide], the inhibitory constant (Ki) in assay [1] worked out at 52 nM. In addition, the IC50 in assay [2] worked out at 322 nM.

Consider `COc1ncc(Nc2nc(C)ccc2-c2nc(C)nc(N)n2)cc1F` [Example 197, 4-(2-(5-Fluoro-6-Methoxypyridin-3-Ylamino)-6-Methylpyridin-3-yl)-6-Methyl-1,3,5-Triazin-2-Amine], for which, in assay [1], the Ki came to 33 nM. The IC50 in assay [2] amounted to 211 nM.

Consider `COc1ncc(Nc2nc(CN3CCOCC3)ccc2-c2nc(C)nc(N)n2)cc1F` [Example 198, 4-(2-(5-Fluoro-6-Methoxypyridin-3-Ylamino)-6-(Morpholinomethyl)Pyridin-3-yl)-6-Methyl-1,3,5-Triazin-2-Amine], for which, in assay [1], the Ki stood at 276 nM. The IC50 in assay [2] was determined as 219 nM.

In the case of `COc1ncc(Nc2nc(COCC(F)(F)F)ccc2-c2nc(C)nc(N)n2)cc1F` [Example 199, 4-(2-(5-Fluoro-6-Methoxypyridin-3-Ylamino)-6-((2,2,2-Trifluoroethoxy)Methyl)Pyridin-3-yl)-6-Methyl-1,3,5-Triazin-2-Amine], the Ki in assay [1] turned out to be 68 nM. In addition, the IC50 in assay [2] is 227 nM.

On to `Cc1ccc(-c2nc(C)nc(N)n2)c(Nc2cncc(F)c2)n1` [Example 200, 4-(2-(5-Fluoropyridin-3-Ylamino)-6-Methylpyridin-3-yl)-6-Methyl-1,3,5-Triazin-2-Amine], for which the Ki in assay [1] is 180 nM. Besides, in assay [2], the IC50 was > 10000 nM.

`COc1ccc(Nc2ncc(CN3CCSCC3)cc2-c2nc(C)nc(N)n2)cn1` [Example 201, 4-(2-(6-Methoxypyridin-3-Ylamino)-5-(Thiomorpholinomethyl)Pyridin-3-yl)-6-Methyl-1,3,5-Triazin-2-Amine]: the Ki in assay [1] was determined as 94 nM. Further, in assay [2], the IC50 amounted to 66 nM.

On to `COc1ccc(Nc2ncc(CN3CC[S+]([O-])CC3)cc2-c2nc(C)nc(N)n2)cn1` [Example 202, 4-(2-(6-Methoxypyridin-3-Ylamino)-5-(1-Sulfoxidemorpholinomethyl)Pyridin-3-yl)-6-Methyl-1,3,5-Triazin-2-Amine], for which the Ki in assay [1] came out at 147 nM. Further, the IC50 in assay [2] worked out at 124 nM.

Turning to `Cc1nc(N)nc(-c2cc(CN3CCN(S(C)(=O)=O)CC3)cnc2Nc2cnc3c(c2)ncn3C)n1` [Example 203, N-(3-(4-Amino-6-Methyl-1,3,5-Triazin-2-yl)-5-((4-(Methylsulfonyl)Piperazin-1-yl)Methyl)Pyridin-2-yl)-3-Methyl-3H-Imidazo[4,5-B]Pyridin-6-Amine], the Ki in assay [1] turned out to be 16 nM. Further, the IC50 in assay [2] came to 562 nM.

With `COc1ccc(Nc2ncc(N3CC[C@H](CO)C3)cc2-c2nc(C)nc3[nH]cnc23)cn1` [Example 204, ((3S)-1-(6-((6-Methoxy-3-Pyridinyl)Amino)-5-(2-Methyl-9H-Purin-6-yl)-3-Pyridinyl)-3-Pyrrolidinyl)Methanol], in assay [1], the Ki amounted to 40 nM. Besides, the IC50 in assay [2] is 434 nM.

With `COc1ccc(Nc2ncc(N3CC[C@H](O)C3)cc2-c2nc(C)nc3[nH]cnc23)cn1` [Example 205, (3S)-1-(6-((6-Methoxy-3-Pyridinyl)Amino)-5-(2-Methyl-9H-Purin-6-yl)-3-Pyridinyl)-3-Pyrrolidinol], the Ki in assay [1] is 47 nM. Further, the IC50 in assay [2] was 384 nM.

Take `COc1ccc(Nc2ncc(N3CC[C@@H](O)C3)cc2-c2nc(C)nc3[nH]cnc23)cn1` [Example 206, (3R)-1-(6-((6-Methoxy-3-Pyridinyl)Amino)-5-(2-Methyl-9H-Purin-6-yl)-3-Pyridinyl)-3-Pyrrolidinol]: the inhibitory constant (Ki) in assay [1] amounted to 68 nM. In assay [2], the IC50 came to 387 nM.

For `COc1ccc(Nc2ncc(CN3CCOC[C@@H]3C)cc2-c2nc(C)nc(N)n2)cn1` [Example 219, (S)-4-(2-(6-Methoxypyridin-3-Ylamino)-5-((3-Methylmorpholino)Methyl)Pyridin-3-yl)-6-Methyl-1,3,5-Triazin-2-Amine], the Ki in assay [1] was 93 nM. In addition, the IC50 in assay [2] is 295 nM.

`COc1ccc(Nc2ncc(CN3CC(S(C)(=O)=O)C3)cc2-c2nc(C)nc(N)n2)cn1` [Example 223, 4-(2-(6-Methoxypyridin-3-Ylamino)-5-((3-(Methylsulfonyl)Azetidin-1-yl)Methyl)Pyridin-3-yl)-6-Methyl-1,3,5-Triazin-2-Amine]: the Ki in assay [1] is 6 nM. Moreover, in assay [2], the IC50 worked out at 28 nM.

Take `COc1ccc(Nc2ncc(CNCCO)cc2-c2nc(C)nc(N)n2)cn1` [Example 225, 2-((5-(4-Amino-6-Methyl-1,3,5-Triazin-2-yl)-6-(6-Methoxypyridin-3-Ylamino)Pyridin-3-yl)Methylamino)Ethanol]: the Ki in assay [1] came out at 135 nM. Moreover, in assay [2], the IC50 came to 275 nM.

For `COc1ccc(Nc2ncc(CN[C@H](C)CO)cc2-c2nc(C)nc(N)n2)cn1` [Example 226, (R)-2-((5-(4-Amino-6-Methyl-1,3,5-Triazin-2-yl)-6-(6-Methoxypyridin-3-Ylamino)Pyridin-3-yl)Methylamino)Propan-1-ol], in assay [1], the Ki was 354 nM. Besides, the IC50 in assay [2] was 573 nM.

For `COc1ccc(Nc2ncc(CN3CC(O)C3)cc2-c2nc(C)nc(N)n2)cn1` [Example 229, 1-((5-(4-Amino-6-Methyl-1,3,5-Triazin-2-yl)-6-(6-Methoxypyridin-3-Ylamino)Pyridin-3-yl)Methyl)Azetidin-3-ol], in assay [1], the Ki stood at 59 nM. Besides, the IC50 in assay [2] was 276 nM.

On to `COc1ccc(Nc2ncc(CN3CC4(C3)NC(=O)NC4=O)cc2-c2nc(C)nc(N)n2)cn1` [Example 230, 2-((5-(4-Amino-6-Methyl-1,3,5-Triazin-2-yl)-6-(6-Methoxypyridin-3-Ylamino)Pyridin-3-yl)Methyl)-2,5,7-Triazaspiro[3.4]Octane-6,8-Dione], for which the Ki in assay [1] came out at 68 nM. In assay [2], the IC50 was found to be 2470 nM.

For `COc1ccc(Nc2ncc(CN3CC(N)C3)cc2-c2nc(C)nc(N)n2)cn1` [Example 231, 4-(5-((3-Aminoazetidin-1-yl)Methyl)-2-(6-Methoxypyridin-3-Ylamino)Pyridin-3-yl)-6-Methyl-1,3,5-Triazin-2-Amine], the Ki in assay [1] turned out to be 446 nM. Also, in assay [2], the IC50 turned out to be 404 nM.

As for `COc1ccc(Nc2ncc(CN3CC(NS(C)(=O)=O)C3)cc2-c2nc(C)nc(N)n2)cn1` [Example 232, N-(1-((5-(4-Amino-6-Methyl-1,3,5-Triazin-2-yl)-6-(6-Methoxypyridin-3-Ylamino)Pyridin-3-yl)Methyl)Azetidin-3-yl)Methanesulfonamide], the Ki in assay [1] was 39 nM. Further, in assay [2], the IC50 was found to be 78 nM.

Take `COc1ccc(Nc2ncc(CN3CCn4ncnc4C3)cc2-c2nc(C)nc(N)n2)cn1` [Example 233, 4-(5-((5,6-Dihydro-[1,2,4]Triazolo[1,5-A]Pyrazin-7(8H)-yl)Methyl)-2-(6-Methoxypyridin-3-Ylamino)Pyridin-3-yl)-6-Methyl-1,3,5-Triazin-2-Amine]: in assay [1], the Ki amounted to 41 nM. Moreover, in assay [2], the IC50 is 58 nM.

Regarding `COc1ccc(Nc2ncc(C(O)c3cc(Br)ccc3S(=O)(=O)N(C)C)cc2-c2nc(C)nc(N)n2)cn1` (stereo not shown) [Example 235, 2-((5-(4-Amino-6-Methyl-1,3,5-Triazin-2-yl)-6-(6-Methoxypyridin-3-Ylamino)Pyridin-3-yl)(Hydroxy)Methyl)-4-Bromo-N,N-Dimethylbenzenesulfonamide], the Ki in assay [1] was found to be 23 nM. Moreover, the IC50 in assay [2] was > 10000 nM.

As for `COc1ccc(Nc2ncc(C(O)c3ccc(S(=O)(=O)N(C)C)cc3)cc2-c2nc(C)nc(N)n2)cn1` (stereo not shown) [Example 236, 4-((5-(4-Amino-6-Methyl-1,3,5-Triazin-2-yl)-6-(6-Methoxypyridin-3-Ylamino)Pyridin-3-yl)(Hydroxy)Methyl)-N,N-Dimethylbenzenesulfonamide], in assay [1], the Ki is 4 nM. Besides, the IC50 in assay [2] is > 10000 nM.

As to `COc1ccc(Nc2ncc(C(N)c3ccc(S(=O)(=O)N(C)C)cc3)cc2-c2nc(C)nc(N)n2)cn1` (stereo not shown) [Example 237, 4-(Amino(5-(4-Amino-6-Methyl-1,3,5-Triazin-2-yl)-6-(6-Methoxypyridin-3-Ylamino)Pyridin-3-yl)Methyl)-N,N-Dimethylbenzenesulfonamide], the Ki in assay [1] was 18 nM. Besides, the IC50 in assay [2] turned out to be 46 nM.
